# Assay results: the RepoRT retention time repository (doi:10.1021/acs.analchem.1c00972)
# Experiment: RP, Waters ACQUITY UPLC BEH C18, 100 × 1 mm, 1.7 µm, 50 °C, 0.3 mL/min, estimated dead time 0.17 min; A: water + 0.1% formic acid + 20 mM ammonium formate; B: methanol + 0.1% formic acid + 20 mM ammonium formate; gradient (min/%B) 0/0 15/100 21/100 22/0 30/0
# Conditions: stereoisomer not certain
row,Structure (SMILES),LC retention time
1,CCOP(=S)(OCC)SCCS(=O)CC (stereo unspecified) [Disulfoton-sulfoxide],12.7 min
2,CC(C)(C)c1cc(-n2nc3ccc(Cl)cc3n2)c(O)c(C(C)(C)C)c1 [UV-327],10.2 min
3,C=CC12CN(C)C3C4COC(CC41)C1(C(=O)Nc4ccccc41)C32 (stereo unspecified) [Gelsemine],7.38 min
4,COc1cc(OC)nc(NC(=O)NS(=O)(=O)c2ncccc2C(F)(F)F)n1 [Flazasulfuron],13.4 min
5,CCC(C)C1OC2(C=CC1C)CC1CC(CC=C(C)C(OC3CC(OC)C(OC4CC(OC)C(O)C(C)O4)C(C)O3)C(C)C=CC=C3COC4C(O)C(C)=CC(C(=O)O1)C34O)O2 (stereo unspecified) [Avermectin B1a (Abamectin)],18.1 min
6,CC(Cc1ccc(C(C)(C)C)cc1)CN1CCCCC1 (stereo unspecified) [Fenpropidin],13.8 min
7,CCOC(=O)c1cn2nc(OP(=S)(OCC)OCC)cc2nc1C [Pyrazophos],15.9 min
8,CC1=C(C(=O)Nc2ccccc2)SCCO1 [Carboxin],11.9 min
9,CC(Oc1ccc(Oc2ccc(Cl)cc2Cl)cc1)C(=O)O (stereo unspecified) [Diclofop],14.3 min
10,CN(C)CCc1ccc(O)cc1 [Hordenine],3.04 min
11,Nc1ccc(Br)cc1 [4-Bromoaniline],8.49 min
12,CCOP(=O)(O)OCC [Diethyl phopshate],16.3 min
13,CC1=NNC(=O)N(N=Cc2cccnc2)C1 [Pymetrozine],5.76 min
14,O=[P+](c1ccccc1)c1ccccc1 [Diphenylphosphine oxide],11.8 min
15,O=C(NC1CCCCC1)NC1CCCCC1 [Dicyclohexylurea],14 min
16,COP(=O)(OC)OC1=C(Cl)C2C=CCC12 (stereo unspecified) [Heptenophos],13.3 min
17,C#CCOc1ccc(CCNC(=O)C(OCC#C)c2ccc(Cl)cc2)cc1OC (stereo unspecified) [Mandipropamid],14.3 min
18,CC(C)(C)c1cc(-n2nc3ccccc3n2)c(O)c(C(C)(C)C)c1 [UV-320],19.8 min
19,CCNP(=S)(OC)OC(C)=CC(=O)OC(C)C (stereo unspecified) [Propetamphos],14.6 min
20,OC(c1ccc(Cl)cc1)(c1cncnc1)c1ccccc1Cl (stereo unspecified) [Fenarimol],14.9 min
21,"Nc1ccc(Cl)c(Cl)c1 [3,4-Dichloroaniline]",17.6 min
22,C[N+](C)(C)C [Tetramethylammonium cation],2 min
23,O=c1cc(O)c2ccccc2o1 [4-Hydroxycoumarin],10.7 min
24,O=P1(N(CCCl)CCCl)NCCCO1 (stereo unspecified) [Cyclophosphamide],10.7 min
25,NCCc1c[nH]c2ccccc12 [tryptamine],7 min
26,CNC(=O)Oc1cc(C)c(S(C)=O)c(C)c1 (stereo unspecified) [Methiocarb-sulfoxide],9.18 min
27,Cc1cc(C(F)(C(F)(F)F)C(F)(F)F)ccc1NC(=O)c1cccc(I)c1C(=O)NC(C)(C)CS(C)(=O)=O [Flubendiamide],15.4 min

# Results, then the molecule that gave them:
row,LC retention time,Structure (SMILES)
1,9.8 min,CC(C)c1ccc(N)cc1 [4-Isopropylaniline]
2,17.1 min,CC(CCC(=O)O)C1CCC2C3CCC4CC(O)CCC4(C)C3CC(O)C12C (stereo unspecified) [Deoxycholic acid]
3,19.2 min,CCCCCCCCCCCCCCCCCC(=O)OCC(O)CO (stereo unspecified) [Glyceryl monostearate]
4,6.9 min,O=C(O)c1cc(=O)c2ccccc2[nH]1 [Kynurenic acid]
5,7 min,OCCc1c[nH]c2ccccc12 [3-(2-Hydroxyethyl)indole]
6,13.6 min,NS(=O)(=O)c1ccc(-n2nc(C(F)(F)F)cc2-c2ccc(C(=O)O)cc2)cc1 [Celecoxib Carboxylic Acid]
7,7.6 min,CC(O)C(NC(=O)Nc1ncnc2c1ncn2C1OC(CO)C(O)C1O)C(=O)O (stereo unspecified) [N6-Threonylcarbamoyladenosine]
8,14.3 min,CCCCCC1=CC(=O)C=C(OC)C1=O [Primin]
9,6.3 min,CN(C)c1nc2c(ncn2C2OC(CO)C(O)C2O)c(=O)[nH]1 (stereo unspecified) [N2_N2-Dimethylguanosine]
10,14.3 min,C=CNc1nc(NC(C)(C)C)nc(SC)n1 [Terbutryn-desaturated]
11,4.7 min,NS(=O)(=O)c1cc2c(cc1Cl)NC=NS2(=O)=O [Chlorthiazide]
12,11.9 min,CCOCN(C(=O)CS(=O)(=O)O)c1c(C)cccc1CC [Acetochlor ESA]
13,5.15 min,COc1nc(C)nc(N)n1 [2-Amino-4-methoxy-6-methyl-1.3.5-triazine (MMT)]
14,13.3 min,CCOCCOC(=O)c1ccccc1C(=O)OCCOCC [Bis(2-ethoxyethyl)phthalate]
15,12.2 min,COc1c2ccoc2c(OC)c2oc(=O)ccc12 [Isopimpinellin]
16,14.5 min,CCCCOCN(C(=O)CS(=O)(=O)O)c1c(CC)cccc1CC [Butachlor ESA]
17,14.5 min,C1=Cc2ccccc2Nc2ccccc21 [Iminostilbene]

row,LC retention time,Structure (SMILES)
1,3.8 min,CC(=O)Nc1ccc(OC2OC(C(=O)O)C(O)C(O)C2O)cc1 (stereo unspecified) [acetaminophen_glucuronide]
2,9.9 min,O=C(O)/C=C/c1ccccc1 [trans-Cinnamic acid]
3,9 min,COc1cccc(CO)c1O [2-Hydroxy-3-methoxybenzyl alcohol]
4,15 min,CC(=O)OC1C(=O)C2(C)C(O)CC3OCC3(OC(C)=O)C2C(OC(=O)c2ccccc2)C2(O)CC(OC(=O)C(O)C(NC(=O)c3ccccc3)c3ccccc3)C(C)=C1C2(C)C (stereo unspecified) [Taxol]
5,18.5 min,CC1CCC2(C(=O)O)CCC3(C)C(=CCC4C5(C)CCC(O)C(C)(C)C5CCC43C)C2C1C (stereo unspecified) [Ursolic acid]
6,11.4 min,"O=C(O)c1cc(Br)c(O)c(Br)c1 [3,5-Dibromo-4-hydroxybenzoic acid]"
7,14.6 min,Cc1cc([N+](=O)[O-])c(N)c([N+](=O)[O-])c1C [Pendimethalin-N-dealkylation]
8,8.9 min,N#Cc1ccccc1Oc1cc(=O)[nH]cn1 [Azoxystrobin-metabolite]
9,14.3 min,CON=C(Cc1cccnc1)c1ccc(Cl)cc1Cl [Pyrifenox]
10,2.5 min,CC(=O)c1ccc(N)cc1 [4-aminoacetophenone]
11,16.7 min,CCCCCC(=O)OC1(C(C)=O)CCC2C3CCC4=CC(=O)CCC4C3CCC21C (stereo unspecified) [Gestonorone capronate]
12,3.3 min,Cn1sccc1=O [2-Methyl-4-isothiazolin-3-one]
13,14.6 min,CC(=O)OCC(=O)C12OC(C)(C)OC1CC1C3CC(F)C4=CC(=O)C=CC4(C)C3(F)C(O)CC12C (stereo unspecified) [Fluocinonide]
14,19.9 min,CCCCC(CC)COP(=O)(OCC(CC)CCCC)OCC(CC)CCCC (stereo unspecified) [Tris(2-Ethylhexyl) phosphate]
15,9.71 min,"Nc1ccc(C=Cc2ccc(N)cc2S(=O)(=O)O)c(S(=O)(=O)O)c1 [4,4'-Diaminostilbene-2,2'-disulfonic acid]"
16,13.3 min,Cc1cnc(NC(=O)C2=C(O)c3ccccc3S(=O)(=O)N2C)s1 [meloxicam]
17,12.8 min,COC(=O)c1ccc(CNS(C)(=O)=O)cc1S(=O)(=O)NC(=O)Nc1nc(OC)cc(OC)n1 [Mesosulfuron-methyl]
